From patent publication US20090069320A1, “Substituted 4-Amino-Quinazoline Compounds with Metabotropic Glutamate Receptor Regulating Activity and Uses Thereof” (Gruenenthal GmbH, priority 2006, published 2009)

Molecular target: T1, mGluR5 receptor (Sus scrofa, UniProt I3LUI7)
T1 construct: 450 μg of protein from brain homogenate with 5 nM ^3[H]-MPEP; from tissue; host or cells: pig brain halves without medulla, cerebellum and pons
Experiment: [3H]-MPEP mGluR5 receptor binding assay (pig brain homogenate)
Conditions: 5 nM [3H]-MPEP; for inhibition at 10 µM: read-out: % Inhibition of mGluR5 Receptor (pig) [^3H]-MPEP Bond at 10 μM; for IC50: read-out: IC50 mGluR5 Receptor (pig) [^3H]-MPEP Bond
Protocol: I. Method for Determining the Inhibition of the [^3H]-MPEP Bond in the mGluR5 Receptor Binding Assay
Pig brain homogenate is produced by homogenizing (Polytron PT 3000, Kinematica AG, 10 000 rpm for 90 seconds) pig brain halves without medulla, cerebellum and pons in pH 8.0 buffer (20 mM Hepes, Sigma, order no. H3375+1 complete tablet, 100 ml, Roche Diagnostics, order no. 1836145) in the ratio of 1:20 (brain weight/volume) and differential centrifuging at 900×g and 40 000×g. In incubation batches of 250 μl in 96-well microtitre plates 450 μg of protein from brain homogenate with 5 nM ^3[H]-MPEP (Tocris, order no. R1212) (MPEP=[…]) and the compounds to be examined (10 μM in test) in buffer (as above) are respectively incubated at room temperature for 60 minutes.
The batches are then filtered using a Brandel cell harvester (Brandel, Robotic 9600) on unifilter plates with fibreglass filter mats (Perkin Elmer, order no. 6005177) and then washed with buffer (as above) 3-times each with 250 μl per sample. The filter plates are then dried for 60 mins. at 55° C. Then, 30 μL of Ultima Gold™ scintillator (Packard BioScience, order no. 6013159) are added per well and after 3 hours the samples are measured on the β-counter (MicroBeta, Perkin Elmer). The non-specific binding is determined by adding 10 μM of MPEP (Tocris, order no. 1212).

T1 sequence (I3LUI7 19-1212): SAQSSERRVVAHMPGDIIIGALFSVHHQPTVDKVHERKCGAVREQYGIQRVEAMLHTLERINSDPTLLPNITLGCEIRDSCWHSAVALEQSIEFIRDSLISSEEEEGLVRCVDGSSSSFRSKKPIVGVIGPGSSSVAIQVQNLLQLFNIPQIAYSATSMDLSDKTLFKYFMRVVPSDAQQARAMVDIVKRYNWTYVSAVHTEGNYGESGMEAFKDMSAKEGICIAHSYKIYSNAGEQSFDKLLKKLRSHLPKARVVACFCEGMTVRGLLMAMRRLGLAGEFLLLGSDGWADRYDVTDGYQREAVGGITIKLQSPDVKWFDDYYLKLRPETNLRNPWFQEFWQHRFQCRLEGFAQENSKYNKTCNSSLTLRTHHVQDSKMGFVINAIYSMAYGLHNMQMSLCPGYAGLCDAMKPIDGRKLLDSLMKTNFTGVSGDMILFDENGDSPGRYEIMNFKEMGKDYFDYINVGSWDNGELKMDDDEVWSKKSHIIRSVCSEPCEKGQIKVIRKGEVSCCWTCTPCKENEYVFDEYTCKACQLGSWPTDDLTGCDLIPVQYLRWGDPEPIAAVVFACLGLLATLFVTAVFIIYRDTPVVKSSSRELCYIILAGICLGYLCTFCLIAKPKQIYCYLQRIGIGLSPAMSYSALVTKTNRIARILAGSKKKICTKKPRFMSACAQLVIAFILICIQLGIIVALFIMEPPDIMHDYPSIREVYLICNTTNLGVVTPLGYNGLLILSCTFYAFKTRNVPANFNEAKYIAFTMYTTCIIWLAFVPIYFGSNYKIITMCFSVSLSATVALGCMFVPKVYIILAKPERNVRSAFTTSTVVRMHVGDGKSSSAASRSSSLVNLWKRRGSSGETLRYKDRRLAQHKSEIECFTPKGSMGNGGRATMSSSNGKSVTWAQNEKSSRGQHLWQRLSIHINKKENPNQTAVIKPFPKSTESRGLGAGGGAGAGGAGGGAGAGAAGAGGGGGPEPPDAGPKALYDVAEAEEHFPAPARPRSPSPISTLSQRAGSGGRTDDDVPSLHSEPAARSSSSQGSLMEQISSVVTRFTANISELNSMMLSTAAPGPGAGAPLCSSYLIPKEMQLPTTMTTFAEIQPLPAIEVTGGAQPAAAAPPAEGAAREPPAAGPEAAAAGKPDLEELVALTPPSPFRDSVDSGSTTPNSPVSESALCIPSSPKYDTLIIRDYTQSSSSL

Row | Structure (SMILES) | inhibition at 10 µM (10 μM compound) [%] | IC50 [µM] | also measured
1 | O=C(c1ccco1)N(Cc1cccc(-c2cc(F)c3ncnc(NC4CC4)c3c2)c1)C1CC1 [Example 677, N-cyclopropyl-N-(3-(4-(cyclopropylamino)-8-fluoroquinazolin-6-yl)benzyl)furan-2-carboxamide] | 93 | – | –
2 | O=S(=O)(c1cccc2cccnc12)N(Cc1cccc(-c2cc(F)c3ncnc(NC4CC4)c3c2)c1)C1CC1 [Example 709, N-cyclopropyl-N-(3-(4-(cyclopropylamino)-8-fluoroquinazolin-6-yl)benzyl)quinoline-8-sulfonamide] | 36 | – | –
3 | CS(=O)(=O)N(Cc1c(F)ccc(-c2ccc3ncnc(NC4CC4)c3c2)c1F)C1CC1 [Example 246, N-cyclopropyl-N-(3-(4-(cyclopropylamino)quinazolin-6-yl)-2,6-difluorobenzyl)methane sulfonamide] | – | 0.35 | –
4 | Fc1ccc(-c2ccc3ncnc(NC4CC4)c3c2)c(F)c1CNC1CC1 [Example 304, N-cyclopropyl-6-(3-((cyclopropylamino)methyl)-2,4-difluorophenyl)quinazoline-4-amine] | – | 3.11 | –
5 | O=C1COCC(=O)N1Cc1cccc(-c2ccc3ncnc(NC4CC4)c3c2)c1 [Example 212, 4-(3-(4-(cyclopropylamino)quinazolin-6-yl)benzyl)morpholine-3,5-dione] | – | 0.1 | –
6 | Cc1cccc(CNc2ncnc3ccc(-c4cccc(CN(C(=O)CN(C)C)C5CC5)c4)cc23)c1 [Example 726, N-cyclopropyl-2-(dimethylamino)-N-(3-(4-(3-methylbenzylamino)quinazolin-6-yl)benzyl)acetamide] | 65 | – | –
7 | CC(C)(C)Nc1ncnc2ccc(-c3ccc(F)c(CN(C(=O)CCc4ccccc4)C4CC4)c3)cc12 [Example 821, N-(5-(4-(tert-butylamino)quinazolin-6-yl)-2-fluorobenzyl)-N-cyclopropyl-3-phenyl propanamide] | – | – | % Inhibition of mGluR5 Receptor (pig) [^3H]-MPEP Bond at 10 μM (10 μM compound): 84%
8 | Cc1cccc(CNc2ncnc3ccc(-c4cccc(CN(C(=O)c5ccccn5)C5CC5)c4)cc23)c1 [Example 395, N-cyclopropyl-N-(3-(4-(3-methylbenzylamino)quinazolin-6-yl)benzyl)picolinamide] | 44 | – | –
9 | O=C(c1ccccc1O)N(Cc1cccc(-c2ccc3ncnc(NC4CC4)c3c2)c1)C1CC1 [Example 156, N-cyclopropyl-N-[3-(4-cyclopropylamino-quinazolin-6-yl)-benzyl]-2-hydroxy-benzamide] | 90 | – | –
10 | c1cc(CNC2CC2)cc(-c2ccc3ncnc(NC4CC4)c3c2)c1 [Example 294, N-cyclopropyl-6-(3-((cyclopropylamino)methyl)-phenyl)quinazoline-4-amine] | – | 8.67 | –

Second part, led by results:

Row | inhibition at 10 µM (10 μM compound) [%] | IC50 [µM] | Structure (SMILES) | also measured
11 | 71 | – | COc1ccc(C(=O)N(Cc2cc(-c3ccc4ncnc(NC(C)(C)C)c4c3)ccc2F)C2CC2)cc1OC [Example 843, N-(5-(4-(tert-butylamino)quinazolin-6-yl)-2-fluorobenzyl)-N-cyclopropyl-3,4-dimethoxybenzamide] | –
12 | – | 0.22 | O=C1CCC(=O)N1Cc1cccc(-c2ccc3ncnc(NC4CC4)c3c2F)c1 [Example 904, 1-(3-(4-(cyclopropylamino)-5-fluoroquinazolin-6-yl)benzyl)pyrrolidine-2,5-dione] | –
13 | – | 0.13 | Cc1cc2ncnc(NC3CC3)c2cc1-c1cccc(CN2C(=O)CCC2=O)c1 [Example 884, 1-(3-(4-(cyclopropylamino)-7-methylquinazolin-6-yl)benzyl)pyrrolidine-2,5-dione] | –
14 | 81 | – | CC(C)(C)Nc1ncnc2ccc(-c3ccc(F)c(CN(C(=O)c4cccc(C(F)(F)F)c4)C4CC4)c3)cc12 [Example 808, N-(5-(4-(tert-butylamino)quinazolin-6-yl)-2-fluorobenzyl)-N-cyclopropyl-3-(trifluoromethyl)benzamide] | –
15 | 73 | – | O=S(=O)(c1cccc2cccnc12)N(Cc1cc(-c2ccc3ncnc(NC4CC4)c3c2)ccn1)C1CC1 [Example 812, N-cyclopropyl-N-((4-(4-(cyclopropylamino)quinazolin-6-yl)pyridin-2-yl)methyl)quinoline-8-sulfonamide] | –
